Assay results taken from patent US10829481B2, “Benzimidazole derivatives as modulators of ROR-gamma” (Vitae Pharmaceuticals, LLC, priority 2016, dated 2020).
pIC50, pKi: −log10 of the molar value.

Experiments:
[1] = molecular target: recombinant RORγ Ligand Binding Domain (LBD) protein (Homo sapiens (Human), UniProt P51449); test: Radio-Ligand RORγ Binding Assay (Assay 1); settings: competition with 25-hydroxy [26,27-3H]-cholesterol, SPA
Summary of the method: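 Scintillation proximity competition against 25-hydroxy [26,27-^3H]-cholesterol (8.6 nM solution) for 6×His-GST-tagged RORγ LBD (24 nM solution) in HEPES pH 7.4 with CHAPS, β-octylglucopyranoside and DTT; semi-log compound dilutions, ~1 h total at rt with poly-Lys YSi beads. IC50 from four-parameter fit; Ki derived from [RL] and radioligand KD.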

[2] = molecular target: full-length RORγt in Jurkat cells (Homo sapiens (Human), UniProt P51449); test: RORγt 5×RORE Assay in Jurkat Cells (Assay 2); format: cell-based; settings: 5×RORE Nanoluc luciferase reporter
Sequence of full-length RORγt in Jurkat cells (P51449 other isoform, or with tags, fused parts or gaps): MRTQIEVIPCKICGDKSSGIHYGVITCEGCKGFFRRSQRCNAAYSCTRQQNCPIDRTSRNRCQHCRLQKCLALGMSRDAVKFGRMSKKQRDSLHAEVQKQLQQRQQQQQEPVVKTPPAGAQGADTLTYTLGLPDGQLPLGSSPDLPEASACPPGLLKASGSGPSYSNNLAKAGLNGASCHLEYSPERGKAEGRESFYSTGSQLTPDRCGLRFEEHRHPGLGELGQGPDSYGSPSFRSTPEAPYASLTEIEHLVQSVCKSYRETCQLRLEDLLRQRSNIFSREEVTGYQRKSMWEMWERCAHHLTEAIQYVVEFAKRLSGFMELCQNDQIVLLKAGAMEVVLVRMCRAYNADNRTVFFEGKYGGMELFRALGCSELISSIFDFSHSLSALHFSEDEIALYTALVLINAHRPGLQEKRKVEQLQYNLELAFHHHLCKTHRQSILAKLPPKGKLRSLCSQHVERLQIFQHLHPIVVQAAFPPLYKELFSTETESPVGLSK

Sequence of recombinant RORγ Ligand Binding Domain (LBD) protein (P51449 269-508): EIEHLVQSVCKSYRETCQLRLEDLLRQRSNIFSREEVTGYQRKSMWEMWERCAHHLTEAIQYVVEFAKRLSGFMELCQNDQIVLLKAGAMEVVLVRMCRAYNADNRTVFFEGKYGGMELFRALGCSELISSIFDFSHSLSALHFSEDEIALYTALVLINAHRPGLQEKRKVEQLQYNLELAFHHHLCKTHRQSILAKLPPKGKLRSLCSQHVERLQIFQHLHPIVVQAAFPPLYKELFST

Q: CCS(=O)(=O)c1ccc(CNC(=O)c2ccc3c(c2)nc(OC)n3Cc2cccc3c2OC(F)(F)O3)cc1 [I-55, 1-((2,2-difluorobenzo[d][1,3]dioxol-4-yl)methyl)-N-(4-(ethylsulfonyl)benzyl)-2-methoxy-1H-benzo[d]imidazole-5-carboxamide] was tested. Which pKi [1] did it give?
A: > 7.00

Q: What about the pIC50 [2] of the same compound?
A: 6.00 to 7.00

Q: With CCS(=O)(=O)c1ccc(CNC(=O)c2ccc3c(c2)nc([C@@H]2C[C@H]2C#N)n3Cc2cccc3c2OC(F)(F)O3)cc1 [I-57, 2-((1R,2R)-2-cyanocyclopropyl)-1-((2,2-difluorobenzo[d][1,3]dioxol-4-yl)methyl)-N-(4-(ethylsulfonyl)benzyl)-1H-benzo[d]imidazole-5-carboxamide] as the compound, how does the pKi [1] read?
A: > 7.00

Q: What about the pIC50 [2] of the same compound?
A: > 7.00

Q: What does the source list for CCS(=O)(=O)c1ccc(CNC(=O)c2ccc3c(c2)nc([C@@H]2C[C@H]2C(=O)OC)n3Cc2cccc3c2OC(F)(F)O3)cc1 [I-58, methyl(1R,2R)-2-(1-((2,2-difluorobenzo[d][1,3]dioxol-4-yl)methyl)-5-((4-(ethylsulfonyl)benzyl)carbamoyl)-1H-benzo[d]imidazol-2-yl)cyclopropane-1-carboxylate]?
A: pKi [1]: > 7.00; pIC50 [2]: 6.00 to 7.00

Q: How did the pKi [1] turn out when CCS(=O)(=O)c1ccc([C@H](COC)NC(=O)c2ccc3c(c2)nc(C(F)(F)F)n3Cc2cccc3c2OC(F)(F)O3)cc1 [I-59, (R)-1-((2,2-difluorobenzo[d][1,3]dioxol-4-yl)methyl)-N-(1-(4-(ethylsulfonyl)phenyl)-2-methoxyethyl)-2-(trifluoromethyl)-1H-benzo[d]imidazole-5-carboxamide] was run?
A: > 7.00

Q: What about the pIC50 [2] of the same compound?
A: > 7.00

Q: Which results are given for CCS(=O)(=O)c1ccc([C@H](COC)NC(=O)c2ccc3c(c2)nc(C2CC2)n3Cc2cccc3c2OC(F)(F)O3)cc1 [I-60, (R)-2-cyclopropyl-1-((2,2-difluorobenzo[d][1,3]dioxol-4-yl)methyl)-N-(1-(4-(ethylsulfonyl)phenyl)-2-methoxyethyl)-1H-benzo[d]imidazole-5-carboxamide]?
A: pKi [1]: > 7.00; pIC50 [2]: > 7.00

Q: CCS(=O)(=O)c1ccc([C@H](COC)NC(=O)c2ccc3c(c2)nc(C2(F)CC2)n3Cc2cccc3c2OC(F)(F)O3)cc1 [I-61, (R)-1-((2,2-difluorobenzo[d][1,3]dioxol-4-yl)methyl)-N-(1-(4-(ethylsulfonyl)phenyl)-2-methoxyethyl)-2-(1-fluorocyclopropyl)-1H-benzo[d]imidazole-5-carboxamide] was tested. Which pKi [1] did it give?
A: > 7.00

Q: And the pIC50 [2]?
A: > 7.00

Q: With CCS(=O)(=O)c1ccc([C@H](COC)NC(=O)c2ccc3c(c2)nc(C(F)(F)F)n3Cc2cccc3c2OC(F)(F)O3)nc1 [I-62, (R)-1-((2,2-difluorobenzo[d][1,3]dioxol-4-yl)methyl)-N-(1-(5-(ethylsulfonyl)pyridin-2-yl)-2-methoxyethyl)-2-(trifluoromethyl)-1H-benzo[d]imidazole-5-carboxamide] as the compound, how does the pKi [1] read?
A: > 7.00

Q: And the pIC50 [2]?
A: > 7.00

Q: Which results are given for CCS(=O)(=O)c1ccc(CNC(=O)c2ccc3c(c2)nc(C(F)(F)F)n3Cc2cccc3c2OC(F)(F)O3)nc1 [I-63, 1-((2,2-difluorobenzo[d][1,3]dioxol-4-yl)methyl)-N-((5-(ethylsulfonyl)pyridin-2-yl)methyl)-2-(trifluoromethyl)-1H-benzo[d]imidazole-5-carboxamide]?
A: pKi [1]: > 7.00; pIC50 [2]: > 7.00

Q: What does the source list for CCS(=O)(=O)c1ccc(CNC(=O)c2ccc3c(c2)nc(C2CC2)n3Cc2cccc3c2OC(F)(F)O3)nc1 [I-64, 2-cyclopropyl-1-((2,2-difluorobenzo[d][1,3]dioxol-4-yl)methyl)-N-((5-(ethylsulfonyl)pyridin-2-yl)methyl)-1H-benzo[d]imidazole-5-carboxamide]?
A: pKi [1]: > 7.00; pIC50 [2]: > 7.00

Q: How did the pKi [1] turn out when CCS(=O)(=O)c1ccc(CNC(=O)c2ccc3c(c2)nc(C2CCC2)n3Cc2cccc3c2OC(F)(F)O3)nc1 [I-65, 2-cyclobutyl-1-((2,2-difluorobenzo[d][1,3]dioxol-4-yl)methyl)-N-((5-(ethylsulfonyl)pyridin-2-yl)methyl)-1H-benzo[d]imidazole-5-carboxamide] was run?
A: > 7.00

Q: What about the pIC50 [2] of the same compound?
A: > 7.00

Q: How did the pKi [1] turn out when CCS(=O)(=O)c1ccc(CNC(=O)c2ccc3c(c2)nc(C(C)(F)F)n3Cc2cccc3c2OC(F)(F)O3)nc1 [I-66, 1-((2,2-difluorobenzo[d][1,3]dioxol-4-yl)methyl)-2-(1,1-difluoroethyl)-N-((5-(ethylsulfonyl)pyridin-2-yl)methyl)-1H-benzo[d]imidazole-5-carboxamide] was run?
A: > 7.00

Q: What about the pIC50 [2] of the same compound?
A: > 7.00

Q: With CCS(=O)(=O)c1ccc(CNC(=O)c2ccc3c(c2)nc(C2(F)CC2)n3Cc2cccc3c2OC(F)(F)O3)nc1 [I-67, 1-((2,2-difluorobenzo[d][1,3]dioxol-4-yl)methyl)-N-((5-(ethylsulfonyl)pyridin-2-yl)methyl)-2-(1-fluorocyclopropyl)-1H-benzo[d]imidazole-5-carboxamide] as the compound, how does the pKi [1] read?
A: > 7.00

Q: And the pIC50 [2]?
A: > 7.00

Q: How did the pKi [1] turn out when CS(=O)(=O)c1ccc(CNC(=O)c2ccc3c(c2)nc(C2(F)CC2)n3Cc2cccc3c2OC(F)(F)O3)nc1 [I-68, 1-((2,2-difluorobenzo[d][1,3]dioxol-4-yl)methyl)-2-(1-fluorocyclopropyl)-N-((5-(methylsulfonyl)pyridin-2-yl)methyl)-1H-benzo[d]imidazole-5-carboxamide] was run?
A: > 7.00

Q: And the pIC50 [2]?
A: > 7.00

Q: With CCS(=O)(=O)c1ccc(CNC(=O)c2ccc3c(c2)nc(C2(F)CCC2)n3Cc2cccc3c2OC(F)(F)O3)nc1 [I-69, 1-((2,2-difluorobenzo[d][1,3]dioxol-4-yl)methyl)-N-((5-(ethylsulfonyl)pyridin-2-yl)methyl)-2-(1-fluorocyclobutyl)-1H-benzo[d]imidazole-5-carboxamide] as the compound, how does the pKi [1] read?
A: > 7.00

Q: What about the pIC50 [2] of the same compound?
A: > 7.00

Q: What does the source list for CS(=O)(=O)c1ccc(CNC(=O)c2ccc3c(c2)nc(C(F)(F)F)n3Cc2cccc3c2OC(F)(F)O3)nc1 [I-70, 1-((2,2-difluorobenzo[d][1,3]dioxol-4-yl)methyl)-N-((5-(methylsulfonyl)pyridin-2-yl)methyl)-2-(trifluoromethyl)-1H-benzo[d]imidazole-5-carboxamide]?
A: pKi [1]: > 7.00; pIC50 [2]: > 7.00

Q: What does the source list for CS(=O)(=O)N1CCC(CNC(=O)c2ccc3c(c2)nc(C(F)(F)F)n3Cc2cccc3c2OC(F)(F)O3)CC1 [I-71, 1-((2,2-difluorobenzo[d][1,3]dioxol-4-yl)methyl)-N-((1-(methylsulfonyl)piperidin-4-yl)methyl)-2-(trifluoromethyl)-1H-benzo[d]imidazole-5-carboxamide]?
A: pKi [1]: > 7.00; pIC50 [2]: > 7.00

Q: With CS(=O)(=O)N1CCC(CNC(=O)c2ccc3c(c2)nc(C2CC2)n3Cc2cccc3c2OC(F)(F)O3)CC1 [I-72, 2-cyclopropyl-1-((2,2-difluorobenzo[d][1,3]dioxol-4-yl)methyl)-N-((1-(methylsulfonyl)piperidin-4-yl)methyl)-1H-benzo[d]imidazole-5-carboxamide] as the compound, how does the pKi [1] read?
A: > 7.00

Q: What about the pIC50 [2] of the same compound?
A: > 7.00

Q: What does the source list for CS(=O)(=O)N1CCC(CNC(=O)c2ccc3c(c2)nc(C2(F)CC2)n3Cc2cccc3c2OC(F)(F)O3)CC1 [I-73, 1-((2,2-difluorobenzo[d][1,3]dioxol-4-yl)methyl)-2-(1-fluorocyclopropyl)-N-((1-(methylsulfonyl)piperidin-4-yl)methyl)-1H-benzo[d]imidazole-5-carboxamide]?
A: pKi [1]: > 7.00; pIC50 [2]: > 7.00
